The IC50 is the midpoint of a concentration-inhibition curve. A higher IC50 goes with weaker potency in that assay.

Consider two compounds from US5958890A, “Tricyclic compounds useful for inhibition of G-protein function and for treatment of proliferative diseases” (Schering Corporation, priority 1997, dated 1999).

Experiment [1] concerns the target farnesyl protein transferase (Homo sapiens, UniProt P49354+P49356). The experiment in a line: FPT inhibition, in vitro enzyme assay (procedure of WO 95/10516). In kind it is biochemical.
The test system of a further experiment is COS Cell. The experiment in a line: COS Cell IC50 (Cell-Based Assay, procedure of WO 95/10516). On the procedure:
FPT IC50 (inhibition of farnesyl protein transferase, in vitro enzyme assay) and COS Cell IC50 (Cell-Based Assay) were determined following the assay procedures described in WO 95/10516, published Apr. 20, 1995. GGPT IC50 (inhibition of geranylgeranyl protein transferase, in vitro enzyme assay), Cell Mat Assay, and anti-tumor activity (in vivo anti-tumor studies) could be determined by the assay procedures described in WO 95/10516. The disclosure of WO 95/10516 is incorporated herein by reference thereto.

As for `NC(=O)N1CC[C@H](CC(=O)N2CCC(C3c4ncc(Br)cc4CCc4cc(Cl)cc(Cl)c43)CC2)C1` (single isomer, unassigned) [Example 1], half-maximal inhibition in experiment [1] (IC50) was put at 0.0386 nM.
As to `NC(=O)N1CC[C@@H](CC(=O)N2CCC(C3c4ncc(Br)cc4CCc4cc(Cl)cc(Cl)c43)CC2)C1` (single isomer, unassigned) [Example 2], the IC50 in the experiment on COS Cell was determined as 0.03 nM.
